Reference: patent US10981917B2, “Heterocyclic compound, its preparation method, and pharmaceutical composition comprising the same” (Daewoong Pharmaceutical Co., Ltd., priority 2017, dated 2021)

Biological target: PRS (prolyl-tRNA synthetase) protein, PRS portion of EPRS (Homo sapiens (Human), UniProt P07814)
Test: PRS enzyme activity inhibition experiment ([3H]proline, liquid scintillation)
Assay type: biochemical
Conditions: purified PRS protein, 37° C. for 5 to 10 minutes
Summary of the method: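 Values are % inhibition or IC50 ranges (A ≤100 nM, B 100–500 nM, C ≥500 nM) from [3H]proline incorporation measured by liquid scintillation. PRS portion of human EPRS, reacted 5–10 min at 37 °C in pH 7.4 phosphate buffer containing 5 mM ATP and tRNA, compound at 1 μM.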

Sequence of PRS (prolyl-tRNA synthetase) protein, PRS portion of EPRS (P07814 1007-1512): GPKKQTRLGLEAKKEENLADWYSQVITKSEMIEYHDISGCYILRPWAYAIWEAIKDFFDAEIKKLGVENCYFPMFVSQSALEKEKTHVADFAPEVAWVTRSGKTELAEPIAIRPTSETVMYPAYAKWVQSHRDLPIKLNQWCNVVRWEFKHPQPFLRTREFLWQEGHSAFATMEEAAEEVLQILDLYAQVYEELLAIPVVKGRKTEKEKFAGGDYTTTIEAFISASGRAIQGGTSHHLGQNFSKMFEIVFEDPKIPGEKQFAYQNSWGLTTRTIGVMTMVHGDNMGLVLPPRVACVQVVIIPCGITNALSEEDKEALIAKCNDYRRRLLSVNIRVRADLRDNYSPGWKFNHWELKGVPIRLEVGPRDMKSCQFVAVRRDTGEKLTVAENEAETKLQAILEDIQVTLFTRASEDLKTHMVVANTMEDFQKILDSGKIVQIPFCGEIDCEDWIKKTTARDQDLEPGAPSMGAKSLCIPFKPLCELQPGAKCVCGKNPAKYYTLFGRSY

| Structure (SMILES) | IC50 [nM] |
| --- | --- |
| COC(=O)c1cc(-c2cc(Cl)cc3ncn(CCC[C@H]4NCCC[C@@H]4O)c23)cs1 [Example 111, methyl 4-(5-chloro-1-(3-((2R,3S)-3-hydroxypiperidin-2-yl)propyl)-1H-benzo[d]imidazol-7-yl)thiophene-2-carboxylate] | ≤ 100 |
| CCCCn1cc(-c2cc(Cl)cc3ncn(CCC[C@H]4NCCC[C@@H]4O)c23)cn1 [Example 113, (2R,3S)-2-(3-(7-(1-butyl-1H-pyrazol-4-yl)-5-chloro-1H-benzo[d]imidazol-1-yl)propyl)piperidin-3-ol] | 100 to 500 |
| CC(C)Cn1cc(-c2cc(Cl)cc3ncn(CCC[C@H]4NCCC[C@@H]4O)c23)cn1 [Example 115, (2R,3S)-2-(3-(5-chloro-7-(1-isobutyl-1H-pyrazol-4-yl)-1H-benzo[d]imidazol-1-yl)propyl)piperidin-3-ol] | 100 to 500 |
| O[C@H]1CCCN[C@@H]1CCCn1cnc2nc(Cl)ccc21 [Example 117, (2R,3S)-2-(3-(5-chloro-1H-imidazo[4,5-b]pyridin-1-yl)propyl)piperidin-3-ol] | 100 to 500 |
| O[C@H]1CCCN[C@@H]1CCCn1cnc2ccc(Cl)nc21 [Example 118, (2R,3S)-2-(3-(5-chloro-3H-imidazo[4,5-b]pyridin-3-yl)propyl)piperidin-3-ol] | ≥ 500 |
| O[C@H]1CCCN[C@@H]1CCCn1cnc2nc(Br)ccc21 [Example 119, (2R,3S)-2-(3-(5-bromo-1H-imidazo[4,5-b]pyridin-1-yl)propyl)piperidin-3-ol] | ≥ 500 |
| O[C@H]1CCCN[C@@H]1CCCn1cnc2cnc(Br)cc21 [Example 124, (2R,3S)-2-(3-(6-bromo-1H-imidazo[4,5-c]pyridin-1-yl)propyl)piperidin-3-ol] | ≥ 500 |
| O[C@H]1CCCN[C@@H]1CCCn1cnc2nccc(Cl)c21 [Example 126, (2R,3S)-2-(3-(7-chloro-1H-imidazo[4,5-b]pyridin-1-yl)propyl)piperidin-3-ol] | 100 to 500 |
| O[C@H]1CCCN[C@@H]1CCCn1cnc2cncc(Br)c21 [Example 128, (2R,3S)-2-(3-(7-bromo-1H-imidazo[4,5-c]pyridin-1-yl)propyl)piperidin-3-ol] | ≥ 500 |
| Cc1c(Cl)cnc2c1ncn2CCC[C@H]1NCCC[C@@H]1O [Example 131, (2R,3S)-2-(3-(6-chloro-7-methyl-3H-imidazo[4,5-b]pyridin-3-yl)propyl)piperidin-3-ol] | 100 to 500 |
| O[C@H]1CCCN[C@@H]1CCCn1cnc2c(Cl)c(Br)cnc21 [Example 133, (2R,3S)-2-(3-(6-bromo-7-chloro-3H-imidazo[4,5-b]pyridin-3-yl)propyl)piperidin-3-ol] | ≥ 500 |
| O[C@H]1CCCN[C@@H]1CCCn1cnc2nc(Cl)ncc21 [Example 135, (2R,3S)-2-(3-(2-chloro-7H-purin-7-yl)propyl)piperidin-3-ol] | ≥ 500 |
| O[C@H]1CCCN[C@@H]1CCCn1cnc2cnc(Cl)nc21 [Example 136, (2R,3S)-2-(3-(2-chloro-9H-purin-9-yl)propyl)piperidin-3-ol] | ≥ 500 |
| CN(C)c1ncnc2c1ncn2CCC[C@H]1NCCC[C@@H]1O [Example 137, (2R,3S)-2-(3-(6-(dimethylamino)-9H-purin-9-yl)propyl)piperidin-3-ol] | ≥ 500 |
| CCN(C)c1ncnc2c1ncn2CCC[C@H]1NCCC[C@@H]1O [Example 139, (2R,3S)-2-(3-(6-(ethyl(methyl)amino)-9H-purin-9-yl)propyl)piperidin-3-ol] | ≥ 500 |
| O[C@H]1CCCN[C@@H]1CCCn1cnc2c(N3CCOCC3)ncnc21 [Example 140, (2R,3S)-2-(3-(6-morpholino-9H-purin-9-yl)propyl)piperidin-3-ol] | ≥ 500 |
| Oc1nc2ccccc2n1CCC[C@H]1NCCC[C@@H]1O [Example 143, 1-(3-((2R,3S)-3-hydroxypiperidin-2-yl)propyl)-1H-benzo[d]imidazol-2-ol] | ≥ 500 |
| Oc1nc2cc(Cl)c(Cl)cc2n1CCC[C@H]1NCCC[C@@H]1O [Example 144, 5,6-dichloro-1-(3-((2R,3S)-3-hydroxypiperidin-2-yl)propyl)-1H-benzo[d]imidazol-2-ol] | ≥ 500 |
| Cc1ccc2c(nc(CO)n2CCC[C@H]2NCCC[C@@H]2O)c1C [Example 146, (2R,3S)-2-(3-(2-(hydroxymethyl)-4,5-dimethyl-1H-benzo[d]imidazol-1-yl)propyl)piperidin-3-ol] | ≥ 500 |
| OCc1nc2cc(Cl)c(Cl)cc2n1CCC[C@H]1NCCC[C@@H]1O [Example 147, (2R,3S)-2-(3-(5,6-dichloro-2-(hydroxymethyl)-1H-benzo[d]imidazol-1-yl)propyl)piperidin-3-ol] | ≥ 500 |
| Nc1nc2cc(Cl)c(Cl)cc2n1CCC[C@H]1NCCC[C@@H]1O [Example 148, (2R,3S)-2-(3-(2-amino-5,6-dichloro-1H-benzo[d]imidazol-1-yl)propyl)piperidin-3-ol] | 100 to 500 |
| COC(=O)c1cn(CCC[C@H]2NCCC[C@@H]2O)c2c(Br)cccc12 [Example 149, methyl 7-bromo-1-(3-((2R,3S)-3-hydroxypiperidin-2-yl)propyl)-1H-indole-3-carboxylate] | 100 to 500 |
| COC(=O)c1cn(CCC[C@H]2NCCC[C@@H]2O)c2ccc(Br)cc12 [Example 150, methyl 5-bromo-1-(3-((2R,3S)-3-hydroxypiperidin-2-yl)propyl)-1H-indole-3-carboxylate] | ≥ 500 |
| COC(=O)c1cn(CCC[C@H]2NCCC[C@@H]2O)c2cc(Br)ccc12 [Example 151, methyl 6-bromo-1-(3-((2R,3S)-3-hydroxypiperidin-2-yl)propyl)-1H-indole-3-carboxylate] | 100 to 500 |

More lines, now with the values ahead:

| IC50 [nM] | Structure (SMILES) |
| --- | --- |
| ≥ 500 | CCOC(=O)c1occc1-c1cc(Cl)cc2ncn(CCC[C@H]3NCCC[C@@H]3O)c12 [Example 110, ethyl 3-(5-chloro-1-(3-((2R,3S)-3-hydroxypiperidin-2-yl)propyl)-1H-benzo[d]imidazol-7-yl)furan-2-carboxylate] |
| 100 to 500 | O[C@H]1CCCN[C@@H]1CCCn1cnc2cc(Cl)cc(-c3cnn(CCF)c3)c21 [Example 112, (2R,3S)-2-(3-(5-chloro-7-(1-(2-fluoroethyl)-1H-pyrazol-4-yl)-1H-benzo[d]imidazol-1-yl)propyl)piperidin-3-ol] |
| 100 to 500 | Cc1cc(-c2cc(Cl)cc3ncn(CCC[C@H]4NCCC[C@@H]4O)c23)c(C)s1 [Example 114, (2R,3S)-2-(3-(5-chloro-7-(2,5-dimethylthiophen-3-yl)-1H-benzo[d]imidazol-1-yl)propyl)piperidin-3-ol] |
| ≤ 100 | CCOC(=O)c1cc(-c2cc(Cl)cc3ncn(CCC[C@H]4NCCC[C@@H]4O)c23)cn1C [Example 116, ethyl 4-(5-chloro-1-(3-((2R,3S)-3-hydroxypiperidin-2-yl)propyl)-1H-benzo[d]imidazol-7-yl)-1-methyl-1H-pyrrole-2-carboxylate] |
| ≥ 500 | O[C@H]1CCCN[C@@H]1CCCn1cnc2ncc(Br)cc21 [Example 120, (2R,3S)-2-(3-(6-bromo-1H-imidazo[4,5-b]pyridin-1-yl)propyl)piperidin-3-ol] |
| 100 to 500 | Cc1ccc2c(ncn2CCC[C@H]2NCCC[C@@H]2O)n1 [Example 121, (2R,3S)-2-(3-(5-methyl-1H-imidazo[4,5-b]pyridin-1-yl)propyl)piperidin-3-ol] |
| 100 to 500 | O[C@H]1CCCN[C@@H]1CCCn1cnc2cnc(Cl)cc21 [Example 122, (2R,3S)-2-(3-(6-chloro-1H-imidazo[4,5-c]pyridin-1-yl)propyl)piperidin-3-ol] |
| ≥ 500 | O[C@H]1CCCN[C@@H]1CCCn1cnc2cc(Cl)ncc21 [Example 123, (2R,3S)-2-(3-(6-chloro-3H-imidazo[4,5-c]pyridin-3-yl)propyl)piperidin-3-ol] |
| ≥ 500 | O[C@H]1CCCN[C@@H]1CCCn1cnc2cc(Br)ncc21 [Example 125, (2R,3S)-2-(3-(6-bromo-3H-imidazo[4,5-c]pyridin-3-yl)propyl)piperidin-3-ol] |
| 100 to 500 | O[C@H]1CCCN[C@@H]1CCCn1cnc2nc(Cl)c(Cl)cc21 [Example 127, (2R,3S)-2-(3-(5,6-dichloro-1H-imidazo[4,5-b]pyridin-1-yl)propyl)piperidin-3-ol] |
| ≥ 500 | O[C@H]1CCCN[C@@H]1CCCn1cnc2ccc(C(F)(F)F)nc21 [Example 129, (2R,3S)-2-(3-(5-(trifluoromethyl)-3H-imidazo[4,5-b]pyridin-3-yl)propyl)piperidin-3-ol] |
| 100 to 500 | O[C@H]1CCCN[C@@H]1CCCn1cnc2c(Cl)c(Cl)cnc21 [Example 130, (2R,3S)-2-(3-(6,7-dichloro-3H-imidazo[4,5-b]pyridin-3-yl)propyl)piperidin-3-ol] |
| 100 to 500 | Cc1c(Br)cnc2c1ncn2CCC[C@H]1NCCC[C@@H]1O [Example 132, (2R,3S)-2-(3-(6-bromo-7-methyl-3H-imidazo[4,5-b]pyridin-3-yl)propyl)piperidin-3-ol] |
| ≥ 500 | O[C@H]1CCCN[C@@H]1CCCn1cnc2c(Cl)c(-c3cccc(Cl)c3)cnc21 [Example 134, (2R,3S)-2-(3-(7-chloro-6-(3-chlorophenyl)-3H-imidazo[4,5-b]pyridin-3-yl)propyl)piperidin-3-ol] |
| ≥ 500 | CCN(CC)c1ncnc2c1ncn2CCC[C@H]1NCCC[C@@H]1O [Example 138, (2R,3S)-2-(3-(6-(diethylamino)-9H-purin-9-yl)propyl)piperidin-3-ol] |
| ≥ 500 | O[C@H]1CCCN[C@@H]1CCCn1cnc2c(N3CCCCC3)ncnc21 [Example 141, (2R,3S)-2-(3-(6-(piperidin-1-yl)-9H-purin-9-yl)propyl)piperidin-3-ol] |
| ≥ 500 | O[C@H]1CCCN[C@@H]1CCCn1cnc2c(N3CCCC3)ncnc21 [Example 142, (2R,3S)-2-(3-(6-(pyrrolidin-1-yl)-9H-purin-9-yl)propyl)piperidin-3-ol] |
| ≥ 500 | OCc1nc2ccccc2n1CCC[C@H]1NCCC[C@@H]1O [Example 145, (2R,3S)-2-(3-(2-(hydroxymethyl)-1H-benzo[d]imidazol-1-yl)propyl)piperidin-3-ol] |
